Experimental data as given in the supplement of paper PMC10883282.
Counter-ions that a name gives are not always drawn. ± gives the standard deviation of the averaged measurements.

Test system: RD-ES
Assay: relative viability vs DMSO control (72 h) (fraction); higher = more viable cells
Summary of the method: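 Sarcoma cell lines in 384-well plates, seeded to reach 80–90% confluence, were given compound after 24 h and kept 72 h at 37 °C, 5% CO2, with 0.1% DMSO vehicle and a 5 µM positive control. Relative viability came from ATPLite as percent growth, averaged over up to triplicate wells. On the rescaled values, 1 equals full and 0 equals none.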

CC[C@H](Nc1ncnc2[nH]cnc12)c1nc2cccc(F)c2c(=O)n1-c1ccccc1 [Idelalisib]
relative viability (0.00017 µM): 0.9939 ± 0.0089
relative viability (0.00051 µM): 0.99 ± 0.033
relative viability (0.00152 µM): 0.977 ± 0.04
relative viability (0.00457 µM): 0.984 ± 0.037
relative viability (0.01372 µM): 0.977 ± 0.033
relative viability (0.04115 µM): 0.98 ± 0.019
relative viability (0.1235 µM): 0.982 ± 0.028
relative viability (0.3704 µM): 0.97 ± 0.027
relative viability (1.111 µM): 0.909 ± 0.026
relative viability (3.333 µM): 0.88 ± 0.034
relative viability (10 µM): 0.744 ± 0.019

COc1cccc2c1C(=O)c1c(O)c3c(c(O)c1C2=O)C[C@@](O)(C(=O)CO)C[C@@H]3O[C@H]1C[C@H](N)[C@H](O)[C@H](C)O1 [Doxorubicin Hydrochloride]
relative viability (0.00017 µM): 1.01 ± 0.032
relative viability (0.00051 µM): 1.03 ± 0.037
relative viability (0.00152 µM): 1.02 ± 0.014
relative viability (0.00457 µM): 1 ± 0.025
relative viability (0.01372 µM): 0.749 ± 0.0091
relative viability (0.04115 µM): 0.374 ± 0.014
relative viability (0.1235 µM): 0.155 ± 0.011
relative viability (0.3704 µM): 0.036 ± 0.0064
relative viability (1.111 µM): 0.0178 ± 0.0034
relative viability (3.333 µM): 0.00453 ± 5.8e-05
relative viability (10 µM): 0.0075 ± 0.00089

Cc1ccc(NC(=O)c2ccc(CN3CCN(C)CC3)cc2)cc1Nc1nc(-c2cccnc2)cs1 [Masitinib]
relative viability (0.00017 µM): 0.959 ± 0.018
relative viability (0.00051 µM): 0.957 ± 0.034
relative viability (0.00152 µM): 0.9656 ± 0.0031
relative viability (0.00457 µM): 0.965 ± 0.032
relative viability (0.01372 µM): 0.948 ± 0.041
relative viability (0.04115 µM): 0.985 ± 0.011
relative viability (0.1235 µM): 0.912 ± 0.047
relative viability (0.3704 µM): 0.86 ± 0.05
relative viability (1.111 µM): 0.726 ± 0.043
relative viability (3.333 µM): 0.519 ± 0.027
relative viability (10 µM): 0.183 ± 0.0068

Cn1cnc2c(F)c(Nc3ccc(Br)cc3F)c(C(=O)NOCCO)cc21 [Binimetinib]
relative viability (0.00017 µM): 0.9413 ± 0.0039
relative viability (0.00051 µM): 0.9487 ± 0.0073
relative viability (0.00152 µM): 0.976 ± 0.024
relative viability (0.00457 µM): 0.969 ± 0.026
relative viability (0.01372 µM): 0.942 ± 0.025
relative viability (0.04115 µM): 0.938 ± 0.053
relative viability (0.1235 µM): 0.962 ± 0.043
relative viability (0.3704 µM): 0.919 ± 0.061
relative viability (1.111 µM): 0.883 ± 0.026
relative viability (3.333 µM): 0.925 ± 0.034
relative viability (10 µM): 0.879 ± 0.042

CC(=O)Nc1cccc(-n2c(=O)n(C3CC3)c(=O)c3c(Nc4ccc(I)cc4F)n(C)c(=O)c(C)c32)c1 [Trametinib]
relative viability (0.00017 µM): 0.979 ± 0.039
relative viability (0.00051 µM): 0.973 ± 0.036
relative viability (0.00152 µM): 0.969 ± 0.044
relative viability (0.00457 µM): 0.957 ± 0.022
relative viability (0.01372 µM): 0.973 ± 0.049
relative viability (0.04115 µM): 0.959 ± 0.037
relative viability (0.1235 µM): 0.946 ± 0.019
relative viability (0.3704 µM): 0.975 ± 0.031
relative viability (1.111 µM): 0.978 ± 0.06
relative viability (3.333 µM): 0.957 ± 0.052
relative viability (10 µM): 0.941 ± 0.062

Cc1cc(Nc2ncnc3ccc(NC4=NC(C)(C)CO4)cc23)ccc1Oc1ccn2ncnc2c1 [Tucatinib]
relative viability (0.00017 µM): 0.989 ± 0.03
relative viability (0.00051 µM): 0.999 ± 0.035
relative viability (0.00152 µM): 1 ± 0.027
relative viability (0.00457 µM): 1 ± 0.035
relative viability (0.01372 µM): 0.95 ± 0.055
relative viability (0.04115 µM): 0.996 ± 0.027
relative viability (0.1235 µM): 0.991 ± 0.014
relative viability (0.3704 µM): 0.974 ± 0.02
relative viability (1.111 µM): 0.985 ± 0.037
relative viability (3.333 µM): 0.983 ± 0.031
relative viability (10 µM): 0.9422 ± 0.0042

CCN1CCN(Cc2ccc(Nc3ncc(F)c(-c4cc(F)c5nc(C)n(C(C)C)c5c4)n3)nc2)CC1 [Abemaciclib]
relative viability (0.00017 µM): 0.975 ± 0.016
relative viability (0.00051 µM): 0.9649 ± 0.0077
relative viability (0.00152 µM): 0.988 ± 0.02
relative viability (0.00457 µM): 0.961 ± 0.027
relative viability (0.01372 µM): 0.908 ± 0.047
relative viability (0.04115 µM): 0.771 ± 0.038
relative viability (0.1235 µM): 0.638 ± 0.014
relative viability (0.3704 µM): 0.544 ± 0.015
relative viability (1.111 µM): 0.526 ± 0.074
relative viability (3.333 µM): 0.447 ± 0.057
relative viability (10 µM): 0.292 ± 0.023

Cc1nc(-c2cn3c(n2)-c2ccc(-c4cnn(C(C)(C)C(N)=O)c4)cc2OCC3)n(C(C)C)n1 [Taselisib]
relative viability (0.00017 µM): 0.992 ± 0.028
relative viability (0.00051 µM): 0.983 ± 0.033
relative viability (0.00152 µM): 0.962 ± 0.026
relative viability (0.00457 µM): 0.949 ± 0.019
relative viability (0.01372 µM): 0.851 ± 0.044
relative viability (0.04115 µM): 0.694 ± 0.01
relative viability (0.1235 µM): 0.556 ± 0.0063
relative viability (0.3704 µM): 0.472 ± 0.0073
relative viability (1.111 µM): 0.426 ± 0.016
relative viability (3.333 µM): 0.347 ± 0.0097
relative viability (10 µM): 0.224 ± 0.0038

C[C@@H]1COCCN1c1cc(-c2ccnn2C)c2ccnc(-c3ccn[nH]3)c2n1
relative viability (0.00017 µM): 0.987 ± 0.036
relative viability (0.00051 µM): 1.02 ± 0.044
relative viability (0.00152 µM): 1.04 ± 0.047
relative viability (0.00457 µM): 1.02 ± 0.04
relative viability (0.01372 µM): 1.01 ± 0.034
relative viability (0.04115 µM): 0.957 ± 0.0036
relative viability (0.1235 µM): 0.686 ± 0.026
relative viability (0.3704 µM): 0.279 ± 0.015
relative viability (1.111 µM): 0.113 ± 0.096
relative viability (3.333 µM): 0.155 ± 0.019
relative viability (10 µM): 0.156 ± 0.0075
